Test results from PubChem BioAssay (NCI).
Where “and” joins values, the source holds several entries; their conditions need not be identical. Equal values may be shown once.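 Cultured in 96-well plates, cells were exposed to test compound for 48 hours across five concentrations. The concentration for 50% growth inhibition is given as GI50. Definition used: TGI = concentration required for complete inhibition of growth.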

How the values were obtained:
Experiment in all cases: NCI-60 cell line screen, 48 h
MALME-3M melanoma = test system: MALME-3M melanoma
EKVX NSCLC = test system: EKVX NSCLC
T-47D breast = test system: T-47D breast
OVCAR-4 ovarian = test system: OVCAR-4 ovarian
SF-268 CNS = test system: SF-268 CNS
A549 NSCLC = test system: A549 NSCLC
HCT-15 colon = test system: HCT-15 colon
OVCAR-3 ovarian = test system: OVCAR-3 ovarian
MDA-MB-231 breast = test system: MDA-MB-231 breast
SR leukemia = test system: SR leukemia

Compound	GI50 (MALME-3M melanoma) [µM]	TGI (MALME-3M melanoma) [µM]	GI50 (EKVX NSCLC) [µM]	TGI (EKVX NSCLC) [µM]	GI50 (T-47D breast) [µM]	TGI (T-47D breast) [µM]	GI50 (OVCAR-4 ovarian)	TGI (OVCAR-4 ovarian)	GI50 (SF-268 CNS) [µM]	TGI (SF-268 CNS) [µM]	GI50 (A549 NSCLC) [µM]	TGI (A549 NSCLC) [µM]	GI50 (HCT-15 colon) [µM]	TGI (HCT-15 colon) [µM]	GI50 (OVCAR-3 ovarian)	TGI (OVCAR-3 ovarian) [µM]	GI50 (MDA-MB-231 breast)	TGI (MDA-MB-231 breast) [µM]	GI50 (SR leukemia)	TGI (SR leukemia)
N#Cc1ccc(NC(=O)Nc2nc3ccc(OC(F)(F)F)cc3s2)cc1	0.843	5.92	1.36	14.7	0.428	5.8	1.64 µM	44 µM	3.06	16.8	1.21	11.1	1.38	6.45	0.577 µM	14.3	0.935 µM	3.65	0.736 µM	5.77 µM
CC(C)Cc1ccc(C(C)/C=C2\CCC(CN3CCCCC3)C2=O)cc1 (stereo unspecified)		31.1		21.1		45.5		14.2 µM		8.29		39.9		7.29		11		17.2		8.23 µM
CCCCCCC/C=C1\CCC(CN(C)C)C1=O (stereo unspecified)		25.3		22.8		26.7		33.6 µM		35.8		50		21.7		18		8.72		9.17 µM
Cc1cc(C)c(O)c(CNCCCNCc2cc(C)cc(C)c2O)c1	1.73	3.29	5.04	20.2	1.73	4.29	3.7 µM	16.1 µM	5.97	21.2	11	24.6	2.01	4.66	3.82 µM	15	1.93 µM	4.45	2.06 µM	6 µM
O=c1c(-c2nc3ccccc3[nH]2)cc2ccccc2n1Cc1cn(Cc2ccccc2Cl)nn1	1.62	3.65	2.74	20.2	2.85	9.88	1.72 µM	3.44 µM	2.4	8.74	2.05	4.38			2.01 µM	4.17	1.71 µM	3.79	2.41 µM	8.64 µM
C=C(C)[C@@H]1CC[C@]2(CN)CC[C@]3(C)[C@H](CC[C@@H]4[C@@]5(C)CCC(N)[C@@](C)(CO)[C@@H]5CC[C@]43C)[C@@H]12 (stereo partly specified)	1.86	3.38	1.55	3.05	1.93	3.84	1.64 µM	3.26 µM	1.75	3.45	1.73	3.27	1.65	3.24	1.96 µM	3.57	1.84 µM	3.32	1.53 µM	3.63 µM
COCC(=O)NC/C=C/c1ccc2ncnc(Nc3ccc(Oc4ccc(C)nc4)c(C)c3)c2c1	14.4	35.4	4.16	48.7	1.19	13.6	4.83 µM	31.1 µM	15.7	50.9	13.8	> 100	9.36	74.2	10.4 µM	28	12.7 µM	36.1	10.7 µM	50.4 µM
CC(=Nc1ccccc1)C1=C(O)C(Cc2ccc(F)cc2)NC1=O (stereo unspecified)	0.661	> 100			0.793	> 100	14.4 µM	> 100 µM	4.45	> 100	0.675	> 100	0.488	> 100	0.323 µM	1.2	1.7 µM	> 100	0.26 µM	> 100 µM
C[C@H](C(O)CC(=O)C(C)(C)O)[C@H]1CC[C@@]2(C)[C@@H]3CC[C@H]4C(C)(C)[C@@H](OC5OC(COC6OC(CO)C(O)C(O)C6O)C(O)C(O)C5O)CC[C@]4(C)C3=CC[C@]12C (stereo partly specified)		> 100		> 100		> 100		> 100 µM		> 100		> 100		> 100		> 100		> 100		> 100 µM
CNC(=S)N(C1CCCCC1)C1CCCCC1		> 100		> 100		> 100		> 100 µM		> 100		> 100		> 100		> 100		> 100		> 100 µM
COC(=O)[C@H](Cc1cn(C)cn1)NC(=O)[C@@H](NC(=O)Nc1cc(C(F)(F)F)cc(C(F)(F)F)c1)C(C)(C)C	> 10	> 10			> 10	> 10	> 10 µM	> 10 µM	> 10	> 10	> 10	> 10	> 10	> 10	> 10 µM	> 10	> 10 µM	> 10	> 10 µM	> 10 µM
CN(C)C1C(=O)C(C(N)=O)=C(O)C2(O)C(=O)C3=C(O)c4c(O)cccc4C(C)(O)C3CC12 (stereo unspecified)		> 100		> 100		> 100	31 µM and > 100 µM	75 µM and > 100 µM				> 100		> 100	44.5 µM and > 100 µM	> 100	26.2 µM and > 100 µM	> 100	26.4 µM and > 100 µM	55.1 µM and > 100 µM
COc1cc(=O)oc(/C=C/C=C/C=C/C(C)=C\C2(C)OC(C)C(C)(O)C2O)c1C (stereo unspecified)				> 100		> 100				> 100		> 100		> 100		> 100		> 100		> 100 µM
COc1cc2c(cc1OC)-c1ncc3cc(OC)c(OC)c(OC)c3c1C2			22.8	90.1	> 100	> 100	62.6 µM	> 100 µM			32.1	> 100	35.4	> 100	15.9 µM	43.9	2.54 µM	48.7	11 µM	39.8 µM
